Results reported in PMC10638401, “Mannich-type modifications of (−)-cannabidiol and (−)-cannabigerol leading to new, bioactive derivatives” (Scientific Reports, 2023).
Converted amounts (≈) assume the structure as drawn.

How the values were obtained:
[1] = tested on: Staphylococcus epidermidis mecA; assay: MIC, broth micro dilution; conditions: Staphylococcus epidermidis
Procedure: (§2) According to CLSI guideline the Minimal Inhibitory Concentrations (MICs) of the prepared compounds were determined with the broth micro dilution method. After an overnight growth on 5% bovine blood agar plates at 35 °C bacterial strains were suspended in physiological saline in order to reach the density of 0.5 McFarland for inoculation. Stock solutions containing different concentrations of the substances were prepared in DMSO and H2O (1:1). These were twofold serially diluted from 256 to 0.5 mg/l in Mueller–Hinton broth, and 100 ml of each dilution was inoculated with 10 ml of each bacterial suspension.

[2] = tested on: Enterococcus faecalis 29 212; assay: MIC, broth micro dilution; conditions: Enterococcus faecalis, 29212
Procedure: as §2

SZ95 sebocytes [3] = assay: Nile Red-assay, spontaneous sebaceous lipogenesis; format: cell-based, human; conditions: 48 h
[4] = tested on: Enterococcus faecalis 15 376 VanA; assay: MIC, broth micro dilution; conditions: Enterococcus faecalis, 15376VANA
Procedure: as §2

[5] = tested on: Staphylococcus epidermidis biofilm forming; assay: MIC, broth micro dilution; conditions: Staphylococcus epidermidis
Procedure: as §2

SZ95 sebocytes [6] = assay: Viability MTT-assay on sebocytes, 48 h; format: cell-based, human; conditions: 30 μM
Procedure: Human immortalized SZ95 sebocytes, originated from human facial sebaceous glands[50] were provided by prof. Christos C. Zouboulis, and were cultured in Sebomed® Basal Medium (Cat. No. F8205; Sigma-Aldrich) supplemented with 10% FBS (Gibco-Thermo Fisher Scientific), 1 mM CaCl2 (Cat. No. C7902; Sigma-Aldrich), 5 ng/ml human epidermal growth factor (Cat. No. E9644; Sigma-Aldrich), and MycoZap™ Plus-CL (1:500; Lonza). The medium was changed every other day, and cells were subcultured at 60–70% confluence.
The viability of HaCaT keratinocytes and SZ95 sebocytes was determined by MTT-assay[58] (Cat. No. M5655; Sigma-Aldrich) measuring the conversion of the tetrazolium salt to formazan by mitochondrial dehydrogenases. Cells were plated in 96-well plates (20,000 cells/well), and were treated as indicated. Cells were then incubated with 0.5 mg/ml MTT reagent for 3 h, and concentration of formazan crystals (as an indicator of number of viable cells) was determined colorimetrically at 565 nm by using FlexStation 3 multi-mode microplate reader (Molecular Devices). Results were expressed as percentage of vehicle-treated control regarded as 100%.

SiHa cells = assay: Antiproliferative MTT assay, 72 h; format: cell-based, human
Outline: (§1)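 Cells seeded at 5000/well, grown overnight, then treated with 10 or 30 μM compound for 72 h. MTT added for 4 h, formazan dissolved in DMSO and read at 545 nm. Values are % proliferation inhibition versus untreated controls (0%), two experiments with five wells each.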

MCF7 cells = assay: Antiproliferative MTT assay, 72 h; format: cell-based, human
Outline: as §1

MDA-MB-231 cells = assay: Antiproliferative MTT assay, 72 h; format: cell-based, human
Outline: as §1

A2780 cells = assay: Antiproliferative MTT assay, 72 h; format: cell-based, human
Outline: as §1

[7] = tested on: MRSA (Methicillin Resistant Staphylococcus aureus); assay: MIC, broth micro dilution; conditions: Staphylococcus aureus
Procedure: as §2

Bacillus subtilis = assay: MIC, broth micro dilution
Procedure: as §2

[8] = tested on: MSSA (Methicillin Sensitive Staphylococcus aureus); assay: MIC, broth micro dilution; conditions: Staphylococcus aureus
Procedure: as §2

in vitro = conditions: African green monkey

Structure (SMILES) | MIC [1] [µg/mL] | MIC [2] [µg/mL] | MIC [4] [µg/mL] | MIC [5] [µg/mL] | viability (MTT signal intensity) (SZ95 sebocytes [6]) | MIC [7] [µg/mL] | MIC (Bacillus subtilis) [µg/mL] | MIC [8] [µg/mL] | CC50 (in vitro) [µM] | also measured
C=C(C)[C@@H]1CCC(C)=C[C@H]1c1c(O)cc(CCCCC)cc1O [Compound 1, (−)-Cannabidiol] | 8 (≈ 25.4 µM) | 2 (≈ 6.36 µM) | 4 (≈ 12.7 µM) | 8 (≈ 25.4 µM) | cytotoxic effects | 4 (≈ 12.7 µM) | 4 (≈ 12.7 µM) | 4 (≈ 12.7 µM) | 12.1 ± 1.2 | spontaneous, homeostatic sebaceous lipogenesis (lipid synthesis) (SZ95 sebocytes [3]; 30 μM): significant decrease in the lipid synthesis; spontaneous, homeostatic sebaceous lipogenesis (SZ95 sebocytes [3]; ≤ 10 μM): no effect; inhibition of the proliferation (in words) (SiHa cells; 10 μM): negligible; inhibition at 30 µM (SiHa cells; Homo sapiens, 30 μM, read-out: inhibition of the proliferation): ~90%; inhibition at 30 µM (MCF7 cells; Homo sapiens, MCF7, 30 μM, read-out: inhibition of the proliferation): ~90%; inhibition of the proliferation (in words) (MCF7 cells; MCF7, 10 μM): modest; inhibition at 30 µM (MDA-MB-231 cells; Homo sapiens, MDA-MB-231, 30 μM, read-out: inhibition of the proliferation): ~90%; inhibition of the proliferation (in words) (MDA-MB-231 cells; MDA-MB-231, 10 μM): negligible; inhibition of the proliferation (in words) (A2780 cells; A2780, 10 μM): modest; inhibition at 30 µM (A2780 cells; Homo sapiens, A2780, 30 μM, read-out: inhibition of the proliferation): ~90%
C=C(C)[C@@H]1CCC(C)=C[C@H]1c1c(O)cc(CCCCC)c(COCC)c1O [Compound 9] | > 256 | 8 (≈ 21.5 µM) | 128 (≈ 344 µM) | > 256 | no such effect on the viability | > 256 | > 256 | > 256 | > 100 | spontaneous, homeostatic sebaceous lipogenesis (SZ95 sebocytes [3]; applied alone): rather promote spontaneous, homeostatic sebaceous lipogenesis; antiproliferative activity (in words) (SiHa cells; 10 and 30 μM): None of the other tested CBD analogs (9, 11, and 12) exhibited substantial antiproliferative activity; antiproliferative activity (in words) (MCF7 cells; MCF7, 10 and 30 μM): None of the other tested CBD analogs (9, 11, and 12) exhibited substantial antiproliferative activity; antiproliferative activity (in words) (MDA-MB-231 cells; MDA-MB-231, 10 and 30 μM): None of the other tested CBD analogs (9, 11, and 12) exhibited substantial antiproliferative activity; antiproliferative activity (in words) (A2780 cells; A2780, 10 and 30 μM): None of the other tested CBD analogs (9, 11, and 12) exhibited substantial antiproliferative activity
